Experimental data taken from patent publication US12396996B2, “Compounds, pharmaceutical compositions, and methods of their use in reversing cancer chemoresistance” (priority 2019, dated 2025).

Assays:
HMLE-SNAIL cells = assay: CD44/CD24 FACS analysis; format: cell-based, human; settings: 1 μM for two days
From the text: The y- and the x-axes represent fluorescence intensity of CD24 and CD44 cell surface markers, respectively. In this cell line, high CD44 and low CD24 expression indicate TIC cell populations. Cells that express CD24 are considered non-TICs.
Cell surface markers can be used to identify mesenchymal, TIC cells. In breast cancer, the presence of CD44 and absence of CD24 markers are indicators of TICs. Specifically, cells expressing high levels of CD44 and no expression of CD24 are considered TICs, whereas cells expressing CD24 are considered non-TICs. HMLE cells display these cell surface markers upon overexpression of SNAIL or TWIST, which turns on the EMT transcriptional program and promotes a mesenchymal TIC state in cancer cells. To determine whether chaetocin treatment alters the mesenchymal phenotype of TICs, these markers were used to track the fate of HMLE-SNAIL cells following chaetocin treatment (1 μM) using fluorescence-activated cell sorting (FACS) analysis. FIGS. 3A-3B show a heat map plot of FACS results under control conditions (FIG. 3A) and following chaetocin treatment (FIG. 3B). The y-axis corresponds to CD24 fluorescence intensity and the x-axis corresponds to CD44 fluorescence intensity.

Suv39H1 and Suv39H2 = settings: cited from earlier work
[1] = test system: H3K9me3 in HMLE-TWIST cells; assay: H3K9me3 chromatin immunoprecipitation and deep sequencing; format: cell-based, human
Protocol: FIG. 11 is a meta-plot depicting the H3K9me3 peaks in HMLE-TWIST cells treated (right graph) with 0.3 μM of chaetocin for 15 hours versus untreated cells (left graph). […] The decrease in red and yellow color and an increase in blue color is consistent with chaetocin-induced inhibition of Suv39H1 and Suv39H2 activities resulting in a decrease in H3K9me3 throughout the chaetocin-treated HMLE-TWIST cells.
Chaetocin is an inhibitor of Suv39H1 and Suv39H2 enzymes, whose catalytic activities trimethylates lysine 9 of histone H3. […] Consistent with our model, we find that genes involved in cell-cell adhesion (a strong marker for epithelial cells) display a specific loss of H3K9me3 in response to chaetocin treatment (Table 6). We also find that genes involved in neural differentiation also lose H3K9me3. […] Moreover, 60 genes display a simultaneous loss of H3K9me3 and an increase in their expression in chaetocin-treated cells (Table 7).

[2] = 0.3 uM for 15 hours, Gene Ontology Biological Process

For CN1C(=O)[C@@]23C[C@]4([C@]56C[C@@]78SS[C@](CO)(C(=O)N7[C@H]5Nc5ccccc56)N(C)C8=O)c5ccccc5N[C@@H]4N2C(=O)[C@@]1(CO)SS3 [chaetocin], the “CD44/CD24 phenotype (TIC to non-TIC)” value (HMLE-SNAIL cells) is listed as “reprograms TICs into a non-TIC phenotype”, the inhibitor specificity (Suv39H1 and Suv39H2) is listed as “specific inhibitor of Suv39H1 and Suv39H2 heterochromatin proteins” and the “change in H3K9me3 profile” value ([1]; 0.3 μM for 15 hours versus untreated) is listed as “specific loss of H3K9me3 over epithelial genes”. The “number of genes with simultaneous loss of H3K9me3 and increase in expression” value ([1]; 0.3 μM for 15 hours, ChIP-seq with RNA-seq) was 60 genes, the “Fold Enrichment of cell-cell adhesion among genes which lose H3K9me3” value [1, 2] was 2.49 and the “Fold Enrichment of neuron differentiation among genes which lose H3K9me3” value [1, 2] was 2.12.
